Experiments:
MCF-7 = test: [3H]-thymidine incorporation assay; format: cell-based; settings: Homo sapiens, MCF7; MCF-7, 24 h of treatment
Procedure, shortened: (§1)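 Cells treated 24 h with compound at 1, 5, 10 μM (MCF-7) or 5, 15, 30 μM (MDA-MB-231), in triplicate, then pulsed with 0.5 μCi [3H]-thymidine for 4 h at 37 °C. TCA-precipitated, lysed cells counted by scintillation; uptake expressed as percent of control.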

MDA-MB-231 = test: [3H]-thymidine incorporation assay; format: cell-based; settings: Homo sapiens; MDA-MB-231, 24 h of treatment
Procedure, shortened: as §1

CCRF-CEM = settings: 48 h
SR = settings: 48 h
UACC-257 = settings: UACC-257, 48 h
OVCAR-3 = settings: for TGI: OVCAR-3, 48 h
SK-OV-3 = settings: SK-OV-3, 48 h
786-0 = settings: 786-0, 48 h
MDA-MB-231/ATCC = settings: 48 h
Leukemia [1] = settings: Leukemia subpanel
[2] = test system: panel of 60 cancer cell lines; settings: for MG_MID TGI: full panel (last line of Table S2)
K-562 = test: cells; settings: Homo sapiens, K562, 48 h; for GI50: K-562, 48 h; for CC50: read-out: LC50
RPMI-8226 = test: cells; settings: Homo sapiens, RPMI-8226, 48 h; for CC50: read-out: LC50
NCI/ADR-RES = test: cells; settings: Homo sapiens, 48 h; for CC50: read-out: LC50, NCI/ADR-RES, 48 h
TK-10 = test: cells; settings: Homo sapiens, TK-10, 48 h; for CC50: read-out: LC50, TK-10, 48 h
UO-31 = test: cells; settings: Homo sapiens, UO-31, 48 h; for CC50: read-out: LC50, UO-31, 48 h
DU-145 = test: cells; settings: Homo sapiens, DU-145, 48 h; for CC50: read-out: LC50, DU-145, 48 h
HS 578T = test: cells; settings: Homo sapiens, 48 h; for GI50: HS 578T; for CC50: read-out: LC50
Leukemia [3] = test: cells; settings: Homo sapiens; for GI50: read-out: MG_MID GI50; for CC50: read-out: MG_MID LC50
[4] = test system: Non-small cell lung cancer; test: cells; settings: Homo sapiens; for GI50: read-out: MG_MID GI50; for CC50: read-out: MG_MID LC50
Melanoma = test: cells; settings: Homo sapiens; for GI50: read-out: MG_MID GI50; for CC50: read-out: MG_MID LC50
Ovarian cancer = test: cells; settings: Homo sapiens; for GI50: read-out: MG_MID GI50; for CC50: read-out: MG_MID LC50
Renal Cancer = test: cells; settings: Homo sapiens; for GI50: read-out: MG_MID GI50; for CC50: read-out: MG_MID LC50
Breast cancer = test: cells; settings: Homo sapiens; for GI50: read-out: MG_MID GI50; for CC50: read-out: MG_MID LC50
[5] = test system: panel of 60 cancer cell lines; test: cells; settings: Homo sapiens, read-out: MG_MID GI50
NCI-H266 = test: NCI-60 SRB screen; settings: for GI50 / CC50: Homo sapiens, 48 h; for GI50 / TGI: NCI-H266, 48 h; for CC50: read-out: LC50, NCI-H266, 48 h
NCI-H460 = test: NCI-60 SRB screen; settings: NCI-H460, 48 h; for GI50 / CC50: Homo sapiens; for CC50: read-out: LC50
OVCAR-5 = test: NCI-60 SRB screen; settings: OVCAR-5, 48 h; for GI50: Homo sapiens
RXF 393 = test: NCI-60 SRB screen; settings: RXF 393, 48 h; for GI50: Homo sapiens
MCF7 = test: NCI-60 SRB screen; settings: MCF7, 48 h; for GI50: Homo sapiens

Question: CC(C)C(C(=O)O)N1C(=O)/C(=C/C=C/c2ccc([N+](=O)[O-])o2)SC1=S (stereo not shown) [5b, 3-Methyl-2-((Z)-5-((E)-3-(5-nitrofuran-2-yl)allylidene)-4-oxo-2-thioxothiazolidin-3-yl)butanoic acid] was tested. Which IC50 (MCF-7) did it give?
Answer: 1.93 µM

Question: And the IC50 (MDA-MB-231)?
Answer: 6.01 µM

Question: And the TGI (CCRF-CEM)?
Answer: 1.81 µM

Question: What about the TGI (SR) of the same compound?
Answer: 1.89 µM

Question: What about the TGI (UACC-257) of the same compound?
Answer: 3.27 µM

Question: And the “growth GP” value (OVCAR-3; OVCAR-3, 10 μM, 48 h)?
Answer: -95.93%

Question: And the TGI (OVCAR-3)?
Answer: 2.77 µM

Question: What about the TGI (SK-OV-3) of the same compound?
Answer: 10.7 µM

Question: And the TGI (786-0)?
Answer: 3.70 µM

Question: And the TGI (MDA-MB-231/ATCC)?
Answer: 3.03 µM

Question: What about the “MG_MID TGI” value (Leukemia [1]) of the same compound?
Answer: 3.77 µM

Question: What about the “Positive cytostatic effect (ratio of cell lines with GP from 0 to 50 to total number)” value ([2]; 10 μM, 48 h) of the same compound?
Answer: 2/55

Question: What about the Mean growth ([2]; 10 μM, 48 h, one dose) of the same compound?
Answer: -73.80%

Question: And the “MG_MID TGI” value [2]?
Answer: 3.53 µM

Question: What about the GI50 (K-562) of the same compound?
Answer: 0.45 µM

Question: What about the CC50 (K-562) of the same compound?
Answer: > 100 µM

Question: What about the GI50 (RPMI-8226) of the same compound?
Answer: 0.35 µM

Question: And the CC50 (RPMI-8226)?
Answer: > 100 µM

Question: And the GI50 (NCI/ADR-RES)?
Answer: 1.47 µM

Question: And the CC50 (NCI/ADR-RES)?
Answer: 17.5 µM

Question: And the GI50 (TK-10)?
Answer: 2.24 µM

Question: What about the CC50 (TK-10) of the same compound?
Answer: 7.23 µM

Question: And the GI50 (UO-31)?
Answer: 1.33 µM

Question: And the CC50 (UO-31)?
Answer: 7.27 µM

Question: What about the GI50 (DU-145) of the same compound?
Answer: 1.43 µM

Question: And the CC50 (DU-145)?
Answer: 5.56 µM

Question: What about the GI50 (HS 578T) of the same compound?
Answer: 2.09 µM

Question: And the CC50 (HS 578T)?
Answer: > 100 µM

Question: And the GI50 (Leukemia [3])?
Answer: 0.84 µM

Question: And the CC50 (Leukemia [3])?
Answer: > 100 µM

Question: And the GI50 [4]?
Answer: 1.8 µM

Question: And the CC50 [4]?
Answer: 20.1 µM

Question: What about the GI50 (Melanoma) of the same compound?
Answer: 1.25 µM

Question: What about the CC50 (Melanoma) of the same compound?
Answer: 5.59 µM

Question: What about the GI50 (Ovarian cancer) of the same compound?
Answer: 1.92 µM

Question: What about the CC50 (Ovarian cancer) of the same compound?
Answer: 17.4 µM

Question: And the GI50 (Renal Cancer)?
Answer: 1.54 µM

Question: What about the CC50 (Renal Cancer) of the same compound?
Answer: 7.72 µM

Question: And the GI50 (Breast cancer)?
Answer: 1.22 µM

Question: And the CC50 (Breast cancer)?
Answer: 24.6 µM

Question: What about the GI50 [5] of the same compound?
Answer: 1.4 µM

Question: And the GI50 (NCI-H266)?
Answer: 2.4 µM

Question: And the CC50 (NCI-H266)?
Answer: 88.8 µM

Question: What about the TGI (NCI-H266) of the same compound?
Answer: 7.65 µM

Question: What about the GI50 (NCI-H460) of the same compound?
Answer: 1.76 µM

Question: And the CC50 (NCI-H460)?
Answer: 34.5 µM

Question: What about the TGI (NCI-H460) of the same compound?
Answer: 4.93 µM

Question: And the GI50 (OVCAR-5)?
Answer: 2.13 µM

Question: What about the TGI (OVCAR-5) of the same compound?
Answer: 3.83 µM

Question: What about the GI50 (RXF 393) of the same compound?
Answer: 1.74 µM

Question: And the TGI (RXF 393)?
Answer: 3.27 µM

Question: What about the GI50 (MCF7) of the same compound?
Answer: 0.43 µM

Question: What about the TGI (MCF7) of the same compound?
Answer: 1.83 µM

Question: For O=C(O)C(c1ccccc1)N1C(=O)/C(=C/C=C/c2ccc([N+](=O)[O-])o2)SC1=S (stereo not shown) [9b, 2-((Z)-5-((E)-3-(5-Nitrofuran-2-yl)allylidene)-4-oxo-2-thioxothiazolidin-3-yl)-2-phenylacetic acid], which IC50 (MCF-7) is on record?
Answer: 7.98 µM

Question: And the IC50 (MDA-MB-231)?
Answer: 7.53 µM

Question: And the TGI (CCRF-CEM)?
Answer: 13.3 µM

Question: And the TGI (SR)?
Answer: 18.0 µM

Question: And the TGI (UACC-257)?
Answer: 27.2 µM

Question: And the TGI (OVCAR-3)?
Answer: 21.4 µM

Question: What about the TGI (SK-OV-3) of the same compound?
Answer: 29.9 µM

Question: And the TGI (786-0)?
Answer: 12.8 µM

Question: What about the TGI (MDA-MB-231/ATCC) of the same compound?
Answer: 24.2 µM

Question: And the “MG_MID TGI” value (Leukemia [1])?
Answer: 24.2 µM

Question: What about the “Positive cytostatic effect (ratio of cell lines with GP from 0 to 50 to total number)” value ([2]; 10 μM, 48 h) of the same compound?
Answer: 28/55

Question: And the Mean growth ([2]; 10 μM, 48 h, one dose)?
Answer: 26.29%

Question: And the Range of growth ([2]; 10 μM, 48 h, one dose)?
Answer: -88.21 to 175.37%

Question: What about the “MG_MID TGI” value [2] of the same compound?
Answer: 24.1 µM

Question: What about the GI50 (K-562) of the same compound?
Answer: 3.45 µM

Question: And the CC50 (K-562)?
Answer: > 100 µM

Question: And the GI50 (RPMI-8226)?
Answer: 3.19 µM

Question: What about the CC50 (RPMI-8226) of the same compound?
Answer: > 100 µM

Question: And the GI50 (NCI/ADR-RES)?
Answer: 13.5 µM

Question: What about the CC50 (NCI/ADR-RES) of the same compound?
Answer: 84.9 µM

Question: And the GI50 (TK-10)?
Answer: 16.1 µM

Question: And the CC50 (TK-10)?
Answer: 55.9 µM

Question: What about the GI50 (UO-31) of the same compound?
Answer: 10.8 µM

Question: And the CC50 (UO-31)?
Answer: 50.7 µM

Question: And the GI50 (DU-145)?
Answer: 11.5 µM

Question: What about the CC50 (DU-145) of the same compound?
Answer: 48.8 µM

Question: And the GI50 (HS 578T)?
Answer: 4.59 µM

Question: What about the CC50 (HS 578T) of the same compound?
Answer: > 100 µM

Question: And the GI50 (Leukemia [3])?
Answer: 6.64 µM

Question: And the CC50 (Leukemia [3])?
Answer: > 100 µM

Question: What about the GI50 [4] of the same compound?
Answer: 11.1 µM

Question: And the CC50 [4]?
Answer: 73.2 µM

Question: And the GI50 (Melanoma)?
Answer: 7.49 µM

Question: And the CC50 (Melanoma)?
Answer: 48.9 µM

Question: What about the GI50 (Ovarian cancer) of the same compound?
Answer: 13 µM

Question: And the CC50 (Ovarian cancer)?
Answer: 60.3 µM

Question: And the GI50 (Renal Cancer)?
Answer: 9.53 µM

Question: What about the CC50 (Renal Cancer) of the same compound?
Answer: 50.7 µM

Question: What about the GI50 (Breast cancer) of the same compound?
Answer: 5.89 µM

Question: What about the CC50 (Breast cancer) of the same compound?
Answer: 49.4 µM

Question: What about the GI50 [5] of the same compound?
Answer: 9.03 µM

Question: And the GI50 (NCI-H266)?
Answer: 12.2 µM

Question: What about the CC50 (NCI-H266) of the same compound?
Answer: 89.7 µM

Question: And the TGI (NCI-H266)?
Answer: 33.1 µM

Question: What about the GI50 (NCI-H460) of the same compound?
Answer: 11.6 µM

Question: What about the CC50 (NCI-H460) of the same compound?
Answer: 73.6 µM

Question: What about the TGI (NCI-H460) of the same compound?
Answer: 29.2 µM

Question: What about the GI50 (OVCAR-5) of the same compound?
Answer: 12.7 µM

Question: And the TGI (OVCAR-5)?
Answer: 25.8 µM

Question: What about the GI50 (RXF 393) of the same compound?
Answer: 4.01 µM

Question: And the TGI (RXF 393)?
Answer: 14.6 µM

Question: And the GI50 (MCF7)?
Answer: 3.67 µM

Question: And the TGI (MCF7)?
Answer: 16.5 µM
